The values below come from PubChem BioAssay (NCI).

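Interpolation was linear, between the two tested concentrations surrounding the appropriate level; five concentrations were tested over 48 hours in 96-well plates. TGI: total growth inhibition.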

Test systems include MDA-MB-435; COLO 205 colon; SF-539 CNS; NCI-H226 lung; OVCAR-3 ovarian; SF-295 CNS; MCF7 breast; HT29 colon; ACHN renal; BT-549 breast; NCI-H23 lung; SK-OV-3 ovarian; SNB-75 CNS; SNB-19 CNS; MALME-3M melanoma; HS 578T breast; K-562 leukemia; RPMI-8226 leukemia; HOP-62 NSCLC; T-47D breast.
What all share (test): NCI-60 cell line screen, 48 h

On to `CC(=O)Nc1ccc(CNc2cc(=O)n(C)c(=O)[nH]2)cc1`, for which the TGI in the experiment with MDA-MB-435, in the experiment with COLO 205 colon, in the experiment on SF-539 CNS, in the experiment on NCI-H226 lung, in the experiment on OVCAR-3 ovarian and in the experiment with SF-295 CNS was over 100 µM in each case. For the same molecule, the TGI in the experiment with MCF7 breast, in the experiment on HT29 colon, in the experiment on ACHN renal, in the experiment with BT-549 breast, in the experiment on NCI-H23 lung and in the experiment on SK-OV-3 ovarian was over 100 µM in each case. The TGI with SNB-75 CNS, in the experiment with SNB-19 CNS, in the experiment on MALME-3M melanoma, in the experiment with HS 578T breast, with K-562 leukemia and with RPMI-8226 leukemia was over 100 µM in each case. For the same molecule, the TGI in the experiment with HOP-62 NSCLC and in the experiment with T-47D breast was over 100 µM throughout.
Consider `Nc1ccc(N=Nc2ccc(-c3ccc(O)cc3)cc2)c2ccc(S(=O)(=O)O)cc12`, for which the TGI in the experiment on MDA-MB-435, in the experiment with COLO 205 colon, in the experiment with SF-539 CNS, in the experiment with NCI-H226 lung, in the experiment with OVCAR-3 ovarian and in the experiment on SF-295 CNS was over 100 µM in each case. Further, the TGI with MCF7 breast, with HT29 colon, in the experiment with ACHN renal, in the experiment with BT-549 breast, with NCI-H23 lung and in the experiment with SK-OV-3 ovarian was over 100 µM throughout. Besides, the TGI in the experiment with SNB-75 CNS, in the experiment with SNB-19 CNS, in the experiment with MALME-3M melanoma, in the experiment on HS 578T breast, with K-562 leukemia and with RPMI-8226 leukemia was over 100 µM throughout. For the same molecule, the TGI in the experiment with HOP-62 NSCLC and with T-47D breast was over 100 µM each time.
Take `CCOC(=O)C(NCc1ccc2c(c1)OCO2)(NC(=O)c1ccccc1)C(F)(F)F` (stereo not given): the TGI in the experiment with MDA-MB-435, in the experiment on COLO 205 colon, in the experiment on SF-539 CNS, in the experiment with NCI-H226 lung, in the experiment on OVCAR-3 ovarian and in the experiment on SF-295 CNS was over 100 µM each time. The TGI in the experiment with MCF7 breast, with HT29 colon, with ACHN renal, in the experiment on BT-549 breast, with NCI-H23 lung and in the experiment with SK-OV-3 ovarian was over 100 µM in each case. Further, the TGI in the experiment with SNB-75 CNS, in the experiment with SNB-19 CNS, in the experiment on MALME-3M melanoma, in the experiment on HS 578T breast, with K-562 leukemia and in the experiment with RPMI-8226 leukemia was over 100 µM throughout. Besides, the TGI in the experiment on HOP-62 NSCLC and in the experiment with T-47D breast was over 100 µM each time.
In the case of `O=C(O)C1=C(C(=O)O)N(c2ccncc2)C(c2ccco2)=CC1c1ccccc1[N+](=O)[O-]` (stereo not given), the TGI in the experiment on MDA-MB-435 was over 56 µM; in the experiment with COLO 205 colon, 31.1 µM; in the experiment with SF-539 CNS, 4.55 µM; in the experiment on NCI-H226 lung, 40.2 µM; with OVCAR-3 ovarian, 23.5 µM; in the experiment with SF-295 CNS it was 25.5 µM. Also, the TGI in the experiment with MCF7 breast came to 10.1 µM; in the experiment on HT29 colon, 3.2 µM; with ACHN renal it was 3.13 µM; in the experiment on BT-549 breast it was 30 µM; in the experiment with NCI-H23 lung, 25.8 µM; in the experiment with SK-OV-3 ovarian, 44.1 µM. Besides, the TGI in the experiment on SNB-75 CNS was 23.9 µM; in the experiment with SNB-19 CNS, 35.5 µM; in the experiment on MALME-3M melanoma it was 22.3 µM; with HS 578T breast it was 62 µM; in the experiment with K-562 leukemia, over 100 µM; with RPMI-8226 leukemia, over 24.6 µM. The TGI in the experiment on HOP-62 NSCLC was 33.7 µM; in the experiment with T-47D breast it was 20.1 µM.
Regarding `CCn1c(-c2ccc(F)cc2)nc2c1C(=O)c1ccccc1C2=O`, the TGI with MDA-MB-435, in the experiment on COLO 205 colon, in the experiment with SF-539 CNS, in the experiment on NCI-H226 lung, in the experiment on OVCAR-3 ovarian and in the experiment with SF-295 CNS was over 100 µM in each case. In addition, the TGI in the experiment with MCF7 breast, in the experiment on HT29 colon, in the experiment with ACHN renal, with BT-549 breast, in the experiment with NCI-H23 lung and in the experiment on SK-OV-3 ovarian was over 100 µM throughout. The TGI in the experiment with SNB-75 CNS, in the experiment with SNB-19 CNS, in the experiment with MALME-3M melanoma, with HS 578T breast, in the experiment with K-562 leukemia and with RPMI-8226 leukemia was over 100 µM throughout. Further, the TGI with HOP-62 NSCLC and in the experiment on T-47D breast was over 100 µM each time.
Turning to `CSCCC(N)P(C)(=O)O` (stereo not given), the TGI in the experiment on MDA-MB-435, in the experiment on COLO 205 colon, in the experiment with SF-539 CNS, in the experiment with NCI-H226 lung, in the experiment with OVCAR-3 ovarian and with SF-295 CNS was over 100 µM throughout. The TGI with MCF7 breast, in the experiment on HT29 colon, in the experiment on ACHN renal, in the experiment on BT-549 breast, in the experiment on NCI-H23 lung and in the experiment on SK-OV-3 ovarian was over 100 µM each time. Also, the TGI with SNB-75 CNS, with SNB-19 CNS, with MALME-3M melanoma, with HS 578T breast, with K-562 leukemia and in the experiment with RPMI-8226 leukemia was over 100 µM in each case. Further, the TGI in the experiment on HOP-62 NSCLC and in the experiment on T-47D breast was over 100 µM each time.
In the case of `CCCCCC(=O)Nc1nc[nH]c1C(N)=O`, the TGI in the experiment with MDA-MB-435, in the experiment on COLO 205 colon, with SF-539 CNS, in the experiment on NCI-H226 lung, in the experiment with OVCAR-3 ovarian and in the experiment with SF-295 CNS was over 100 µM each time. In addition, the TGI in the experiment with MCF7 breast, in the experiment on HT29 colon, in the experiment on ACHN renal, in the experiment with BT-549 breast, in the experiment on NCI-H23 lung and in the experiment on SK-OV-3 ovarian was over 100 µM in each case. In addition, the TGI in the experiment on SNB-75 CNS, in the experiment with SNB-19 CNS, in the experiment on MALME-3M melanoma, with HS 578T breast, in the experiment with K-562 leukemia and with RPMI-8226 leukemia was over 100 µM each time. The TGI in the experiment on HOP-62 NSCLC and in the experiment on T-47D breast was over 100 µM in each case.
As to `CC(=O)Nc1sc([N+](=O)[O-])cc1S(=O)(=O)c1ccc(Cl)cc1`, the TGI in the experiment on MDA-MB-435 is over 53.3 µM; with COLO 205 colon, 1.77 µM; in the experiment with SF-539 CNS it was 10.2 µM; in the experiment on NCI-H226 lung, 21.9 µM; in the experiment with OVCAR-3 ovarian, 16.1 µM; with SF-295 CNS it was 8.07 µM. Moreover, the TGI in the experiment with MCF7 breast is 9.41 µM; in the experiment with HT29 colon, over 52.8 µM; in the experiment with ACHN renal it was 10.6 µM; in the experiment on BT-549 breast, over 24.8 µM; in the experiment with NCI-H23 lung, 14.1 µM; in the experiment with SK-OV-3 ovarian, 15.6 µM. In addition, the TGI in the experiment on SNB-75 CNS was 11.2 µM; in the experiment with SNB-19 CNS, over 100 µM; with MALME-3M melanoma it was 15.3 µM; in the experiment on HS 578T breast, 17.2 µM; with K-562 leukemia it was over 100 µM; with RPMI-8226 leukemia, over 100 µM. For the same molecule, the TGI in the experiment with HOP-62 NSCLC worked out at 3.99 µM; with T-47D breast, 12.2 µM.
On to `Cn1cc(-c2cnc(-c3cn(C)c4ccccc34)cn2)c2ccccc21`, for which the TGI is 7.38 µM in the experiment on MDA-MB-435; 15.6 µM in the experiment with COLO 205 colon; 10.4 µM in the experiment on SF-539 CNS; over 86.1 µM in the experiment with NCI-H226 lung; over 42.4 µM in the experiment on OVCAR-3 ovarian; 11.7 µM with SF-295 CNS. Besides, the TGI in the experiment with MCF7 breast was over 27.1 µM; with HT29 colon it was 36.6 µM; with ACHN renal, over 94.6 µM; in the experiment with BT-549 breast, over 84.7 µM; with NCI-H23 lung, 37.6 µM; with SK-OV-3 ovarian, over 100 µM. Moreover, the TGI in the experiment on SNB-75 CNS was 25.7 µM; in the experiment with SNB-19 CNS it was over 100 µM; with MALME-3M melanoma, over 100 µM; in the experiment on HS 578T breast, 33.5 µM; in the experiment with K-562 leukemia, over 52.5 µM; in the experiment with RPMI-8226 leukemia, over 44.4 µM. Besides, the TGI in the experiment on HOP-62 NSCLC and in the experiment on T-47D breast was over 100 µM each time.
Take `COc1ccc(N=C2C(=Nc3ccc(OC)cc3)N(S(=O)(=O)c3ccccc3)C(=S)N2c2ccccc2)cc1`: the TGI with MDA-MB-435, with COLO 205 colon, in the experiment with SF-539 CNS, in the experiment on NCI-H226 lung, in the experiment with OVCAR-3 ovarian and in the experiment with SF-295 CNS was over 100 µM throughout. Further, the TGI in the experiment with MCF7 breast, in the experiment on HT29 colon, in the experiment on ACHN renal, with BT-549 breast, in the experiment on NCI-H23 lung and in the experiment with SK-OV-3 ovarian was over 100 µM each time. Besides, the TGI in the experiment with SNB-75 CNS, with SNB-19 CNS, with MALME-3M melanoma, in the experiment with HS 578T breast, in the experiment with K-562 leukemia and with RPMI-8226 leukemia was over 100 µM in each case. In addition, the TGI in the experiment with HOP-62 NSCLC and in the experiment on T-47D breast was over 100 µM each time.
Take `C=CCn1c(C23CC4CC(CC(C4)C2)C3)n[nH]c1=S`: the TGI in the experiment with MDA-MB-435, with COLO 205 colon, in the experiment with SF-539 CNS, in the experiment on NCI-H226 lung, in the experiment with OVCAR-3 ovarian and in the experiment with SF-295 CNS was over 100 µM in each case. The TGI with MCF7 breast, in the experiment on HT29 colon, with ACHN renal, with BT-549 breast, in the experiment with NCI-H23 lung and in the experiment with SK-OV-3 ovarian was over 100 µM each time. Further, the TGI with SNB-75 CNS, in the experiment with SNB-19 CNS, in the experiment with MALME-3M melanoma, in the experiment with HS 578T breast, in the experiment with K-562 leukemia and in the experiment with RPMI-8226 leukemia was over 100 µM in each case. Besides, the TGI in the experiment on HOP-62 NSCLC and in the experiment on T-47D breast was over 100 µM throughout.
